One block for each compound: values may come before it. Calls of active or inactive are those of the source.
What was measured:
[1] = target: Hepatocyte growth factor receptor (Homo sapiens, UniProt P08581); assay type: functional;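 further: kinase panel profiling across the kinome, with MET as the panel member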
[2] = target: Activated CDC42 kinase 1 (Homo sapiens, UniProt Q07912); assay: Navigating the Kinome. Panel member name: ACK1; assay type: functional
[3] = target: Dual specificity mitogen-activated protein kinase kinase 2 (Homo sapiens, UniProt P36507); assay: Navigating the Kinome. Panel member name: MAP2K2; assay type: functional
[4] = target: Leukocyte tyrosine kinase receptor (Homo sapiens, UniProt P29376); assay: Navigating the Kinome. Panel member name: LTK; assay type: functional
Sequence of Leukocyte tyrosine kinase receptor (P29376 whole entry): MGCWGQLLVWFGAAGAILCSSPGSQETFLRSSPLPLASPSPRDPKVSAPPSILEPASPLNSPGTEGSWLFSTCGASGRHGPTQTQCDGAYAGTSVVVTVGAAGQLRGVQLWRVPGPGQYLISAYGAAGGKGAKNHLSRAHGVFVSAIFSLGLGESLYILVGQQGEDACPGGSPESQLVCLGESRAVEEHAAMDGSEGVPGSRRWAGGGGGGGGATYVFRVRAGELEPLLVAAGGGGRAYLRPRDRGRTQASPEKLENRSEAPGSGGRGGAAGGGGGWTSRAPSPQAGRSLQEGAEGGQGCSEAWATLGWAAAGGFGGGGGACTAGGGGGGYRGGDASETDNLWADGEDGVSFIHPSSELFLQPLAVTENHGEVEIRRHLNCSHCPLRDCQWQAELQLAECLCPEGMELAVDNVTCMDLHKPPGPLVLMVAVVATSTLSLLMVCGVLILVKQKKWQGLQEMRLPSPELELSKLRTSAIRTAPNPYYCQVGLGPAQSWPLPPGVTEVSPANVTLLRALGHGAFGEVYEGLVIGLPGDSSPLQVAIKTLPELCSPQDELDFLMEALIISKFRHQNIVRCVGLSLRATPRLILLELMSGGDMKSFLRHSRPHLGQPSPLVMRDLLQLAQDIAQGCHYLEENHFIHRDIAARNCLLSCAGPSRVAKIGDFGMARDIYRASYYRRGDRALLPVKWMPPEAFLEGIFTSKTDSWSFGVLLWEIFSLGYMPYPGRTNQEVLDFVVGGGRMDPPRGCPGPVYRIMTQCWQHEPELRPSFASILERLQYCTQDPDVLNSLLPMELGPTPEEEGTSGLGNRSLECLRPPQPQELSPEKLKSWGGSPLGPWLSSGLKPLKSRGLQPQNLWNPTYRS

[5] = target: Rho-associated protein kinase 1 (Homo sapiens, UniProt Q13464); assay type: functional;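 further: measured within a broad kinome-wide panel profiling many kinases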
[6] = target: Testis-specific serine/threonine-protein kinase 1 (Homo sapiens, UniProt Q9BXA7); assay type: functional
[7] = target: Cell division cycle 7-related protein kinase (Homo sapiens, UniProt O00311); assay type: functional;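 further: value obtained from a kinome-wide kinase panel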
Sequence of Cell division cycle 7-related protein kinase (O00311 whole entry): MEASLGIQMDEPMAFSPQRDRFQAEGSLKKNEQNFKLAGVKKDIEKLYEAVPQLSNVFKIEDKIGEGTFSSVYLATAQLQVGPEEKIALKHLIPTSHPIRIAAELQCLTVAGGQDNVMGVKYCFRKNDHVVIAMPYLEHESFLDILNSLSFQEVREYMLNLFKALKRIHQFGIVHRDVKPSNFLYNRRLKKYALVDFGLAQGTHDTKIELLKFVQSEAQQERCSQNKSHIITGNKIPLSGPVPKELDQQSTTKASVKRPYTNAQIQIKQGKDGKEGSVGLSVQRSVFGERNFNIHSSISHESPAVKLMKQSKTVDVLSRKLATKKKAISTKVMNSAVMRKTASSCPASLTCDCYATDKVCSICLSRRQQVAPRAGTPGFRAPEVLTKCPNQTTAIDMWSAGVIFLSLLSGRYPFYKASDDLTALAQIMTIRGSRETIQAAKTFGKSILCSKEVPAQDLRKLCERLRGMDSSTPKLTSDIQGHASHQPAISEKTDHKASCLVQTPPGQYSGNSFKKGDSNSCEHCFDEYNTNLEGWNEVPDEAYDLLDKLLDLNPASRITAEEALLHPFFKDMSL

[8] = target: Serine/threonine-protein kinase PLK3 (Homo sapiens, UniProt Q9H4B4); assay type: functional
[9] = target: Ephrin type-A receptor 2 (Homo sapiens, UniProt P29317); assay type: functional;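 further: EPHA2 tested as one member of a kinome-wide kinase panel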
[10] = target: Mitogen-activated protein kinase kinase kinase 20 (Homo sapiens, UniProt Q9NYL2); assay type: functional
Sequence of Mitogen-activated protein kinase kinase kinase 20 (Q9NYL2 whole entry): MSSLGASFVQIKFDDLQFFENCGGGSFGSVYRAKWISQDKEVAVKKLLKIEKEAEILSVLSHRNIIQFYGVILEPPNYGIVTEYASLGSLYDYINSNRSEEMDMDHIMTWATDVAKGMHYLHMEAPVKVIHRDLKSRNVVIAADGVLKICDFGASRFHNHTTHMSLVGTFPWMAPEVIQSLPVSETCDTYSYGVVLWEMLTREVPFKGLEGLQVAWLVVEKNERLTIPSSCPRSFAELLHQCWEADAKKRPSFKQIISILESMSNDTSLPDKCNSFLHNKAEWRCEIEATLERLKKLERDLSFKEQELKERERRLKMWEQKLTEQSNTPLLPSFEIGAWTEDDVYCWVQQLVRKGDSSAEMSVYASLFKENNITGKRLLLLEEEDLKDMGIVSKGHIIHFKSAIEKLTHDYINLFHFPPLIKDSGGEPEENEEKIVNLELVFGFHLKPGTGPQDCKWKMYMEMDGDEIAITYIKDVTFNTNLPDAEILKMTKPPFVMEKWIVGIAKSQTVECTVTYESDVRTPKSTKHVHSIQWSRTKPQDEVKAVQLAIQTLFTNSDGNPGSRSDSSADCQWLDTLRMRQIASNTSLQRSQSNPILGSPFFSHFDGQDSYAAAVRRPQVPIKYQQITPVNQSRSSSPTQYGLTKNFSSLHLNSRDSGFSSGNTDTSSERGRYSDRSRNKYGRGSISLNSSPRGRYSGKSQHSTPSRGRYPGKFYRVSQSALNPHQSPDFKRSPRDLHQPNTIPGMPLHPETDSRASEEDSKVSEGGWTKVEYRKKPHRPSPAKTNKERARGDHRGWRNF

[11] = target: Cyclin-dependent kinase 1 (Homo sapiens, UniProt P06493); assay type: functional;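 further: Kinome-wide panel profiling, with the target listed as panel member CDC2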
Sequence of Cyclin-dependent kinase 1 (P06493 whole entry): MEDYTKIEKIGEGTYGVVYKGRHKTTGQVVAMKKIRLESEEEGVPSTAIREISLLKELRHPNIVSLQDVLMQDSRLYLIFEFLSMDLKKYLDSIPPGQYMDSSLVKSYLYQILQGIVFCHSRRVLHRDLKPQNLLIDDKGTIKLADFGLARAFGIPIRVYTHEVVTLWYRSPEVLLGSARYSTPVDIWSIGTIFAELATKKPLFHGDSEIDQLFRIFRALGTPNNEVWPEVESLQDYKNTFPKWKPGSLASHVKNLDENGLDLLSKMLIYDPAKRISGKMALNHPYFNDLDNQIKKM

[12] = target: Mitogen-activated protein kinase 13 (Homo sapiens, UniProt O15264); assay type: functional
[13] = target: Ribosomal protein S6 kinase alpha-5 (Homo sapiens, UniProt O75582); assay type: functional
Sequence of Ribosomal protein S6 kinase alpha-5 (O75582 whole entry): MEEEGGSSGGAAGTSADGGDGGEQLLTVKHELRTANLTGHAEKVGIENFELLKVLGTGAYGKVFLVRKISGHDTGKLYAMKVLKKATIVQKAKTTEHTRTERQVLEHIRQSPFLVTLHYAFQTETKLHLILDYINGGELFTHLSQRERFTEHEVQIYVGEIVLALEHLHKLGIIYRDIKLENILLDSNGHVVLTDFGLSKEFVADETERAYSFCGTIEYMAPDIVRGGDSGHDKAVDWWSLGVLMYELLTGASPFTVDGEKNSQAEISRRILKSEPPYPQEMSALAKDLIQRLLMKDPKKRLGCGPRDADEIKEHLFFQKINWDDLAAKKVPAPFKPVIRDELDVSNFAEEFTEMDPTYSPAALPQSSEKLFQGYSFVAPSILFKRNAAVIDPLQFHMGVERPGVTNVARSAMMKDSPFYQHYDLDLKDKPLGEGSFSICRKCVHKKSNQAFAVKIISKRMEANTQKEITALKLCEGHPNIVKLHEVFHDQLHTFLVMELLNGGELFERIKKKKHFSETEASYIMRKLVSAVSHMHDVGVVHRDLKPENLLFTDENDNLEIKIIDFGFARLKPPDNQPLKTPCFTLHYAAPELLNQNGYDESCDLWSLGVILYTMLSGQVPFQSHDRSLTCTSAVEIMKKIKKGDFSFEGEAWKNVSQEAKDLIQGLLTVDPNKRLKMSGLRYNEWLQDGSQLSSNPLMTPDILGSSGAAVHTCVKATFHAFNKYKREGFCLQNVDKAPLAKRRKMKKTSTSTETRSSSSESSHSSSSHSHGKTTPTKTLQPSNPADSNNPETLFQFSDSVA

[14] = target: Vascular endothelial growth factor receptor 3 (Homo sapiens, UniProt P35916); assay type: functional;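 further: value from a kinome-wide profiling panel, with FLT4 as the panel member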
[15] = target: Serine/threonine-protein kinase pim-2 (Homo sapiens, UniProt Q9P1W9); assay type: functional;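 further: value comes from a broad kinase panel profiling study in which PIM2 was one of the panel members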
Sequence of Serine/threonine-protein kinase pim-2 (Q9P1W9 whole entry): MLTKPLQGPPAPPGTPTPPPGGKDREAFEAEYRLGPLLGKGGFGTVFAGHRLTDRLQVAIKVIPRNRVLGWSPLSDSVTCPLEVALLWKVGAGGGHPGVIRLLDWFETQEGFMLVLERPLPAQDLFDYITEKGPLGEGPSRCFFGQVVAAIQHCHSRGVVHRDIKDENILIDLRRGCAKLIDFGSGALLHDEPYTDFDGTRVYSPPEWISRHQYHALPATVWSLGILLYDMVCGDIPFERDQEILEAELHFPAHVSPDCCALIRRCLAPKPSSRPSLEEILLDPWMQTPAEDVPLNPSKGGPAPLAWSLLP

[16] = target: T1, Apoptotic protease-activating factor 1 (Homo sapiens, UniProt O14727); assay type: functional
T1 sequence (O14727 whole entry): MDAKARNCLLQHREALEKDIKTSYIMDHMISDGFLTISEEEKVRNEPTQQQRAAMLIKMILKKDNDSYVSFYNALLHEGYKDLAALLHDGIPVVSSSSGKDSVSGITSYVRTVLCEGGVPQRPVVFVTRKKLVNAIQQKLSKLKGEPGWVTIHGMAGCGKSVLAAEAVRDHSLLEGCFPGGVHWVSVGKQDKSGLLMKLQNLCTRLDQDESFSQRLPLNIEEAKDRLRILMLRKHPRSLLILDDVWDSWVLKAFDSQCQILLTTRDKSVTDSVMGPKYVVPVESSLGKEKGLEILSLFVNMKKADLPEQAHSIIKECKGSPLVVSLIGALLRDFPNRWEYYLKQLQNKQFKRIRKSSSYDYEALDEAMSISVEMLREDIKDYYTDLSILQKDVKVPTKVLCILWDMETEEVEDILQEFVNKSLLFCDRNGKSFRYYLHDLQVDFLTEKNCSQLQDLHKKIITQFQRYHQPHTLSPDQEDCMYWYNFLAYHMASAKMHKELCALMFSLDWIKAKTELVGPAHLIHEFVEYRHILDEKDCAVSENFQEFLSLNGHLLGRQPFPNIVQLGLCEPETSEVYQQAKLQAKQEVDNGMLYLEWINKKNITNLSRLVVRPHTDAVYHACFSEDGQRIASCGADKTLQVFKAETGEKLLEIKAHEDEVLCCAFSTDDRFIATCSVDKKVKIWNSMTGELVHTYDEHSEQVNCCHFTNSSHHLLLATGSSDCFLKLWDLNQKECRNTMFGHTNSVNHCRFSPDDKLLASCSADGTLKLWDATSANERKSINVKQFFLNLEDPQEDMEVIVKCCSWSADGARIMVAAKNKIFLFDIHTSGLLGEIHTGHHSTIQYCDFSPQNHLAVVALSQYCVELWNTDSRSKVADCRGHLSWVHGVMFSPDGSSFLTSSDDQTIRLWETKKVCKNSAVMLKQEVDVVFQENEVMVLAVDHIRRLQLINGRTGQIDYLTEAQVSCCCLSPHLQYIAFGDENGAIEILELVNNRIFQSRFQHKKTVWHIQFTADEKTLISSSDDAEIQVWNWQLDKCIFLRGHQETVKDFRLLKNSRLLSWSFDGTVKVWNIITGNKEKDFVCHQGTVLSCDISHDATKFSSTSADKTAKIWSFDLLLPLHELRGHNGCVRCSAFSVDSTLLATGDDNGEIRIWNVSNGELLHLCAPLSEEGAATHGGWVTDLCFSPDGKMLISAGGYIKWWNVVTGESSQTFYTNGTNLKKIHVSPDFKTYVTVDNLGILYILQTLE

[17] = target: T2, Tyrosyl-DNA phosphodiesterase 2 (Homo sapiens, UniProt O95551); assay: potency against TDP2 phosphodiesterase activity – biochemical, epi absorbance, IC50, dose response (AID 743297)
T2 sequence (O95551 whole entry): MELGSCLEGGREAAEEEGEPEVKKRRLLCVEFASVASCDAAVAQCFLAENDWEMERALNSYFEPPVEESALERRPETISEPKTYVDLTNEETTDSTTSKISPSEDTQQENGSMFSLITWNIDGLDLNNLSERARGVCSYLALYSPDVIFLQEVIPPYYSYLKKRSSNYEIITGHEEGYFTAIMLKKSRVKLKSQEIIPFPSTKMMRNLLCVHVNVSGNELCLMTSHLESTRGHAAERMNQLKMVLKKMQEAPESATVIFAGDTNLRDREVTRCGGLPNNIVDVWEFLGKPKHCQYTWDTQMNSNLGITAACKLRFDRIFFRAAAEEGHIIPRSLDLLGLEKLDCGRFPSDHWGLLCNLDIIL

[18] = target: T3, Dual specificity protein phosphatase 6 (Rattus norvegicus, UniProt Q64346); assay: inhibition of rat DUSP6 enzyme activity – biochemical, in vitro, primary screen (AID 425)
T3 sequence (Q64346 whole entry): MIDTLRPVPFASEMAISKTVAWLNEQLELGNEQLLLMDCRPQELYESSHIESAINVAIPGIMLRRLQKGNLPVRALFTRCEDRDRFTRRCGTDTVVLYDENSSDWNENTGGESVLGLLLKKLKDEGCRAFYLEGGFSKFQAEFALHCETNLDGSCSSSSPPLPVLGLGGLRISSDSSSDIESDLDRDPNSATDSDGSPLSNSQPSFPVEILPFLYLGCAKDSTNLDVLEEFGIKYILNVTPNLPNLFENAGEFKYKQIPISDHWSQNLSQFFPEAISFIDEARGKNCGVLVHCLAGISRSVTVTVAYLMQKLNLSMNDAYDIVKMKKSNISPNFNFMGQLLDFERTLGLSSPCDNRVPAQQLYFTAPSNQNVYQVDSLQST

Sequence of Hepatocyte growth factor receptor (P08581 whole entry): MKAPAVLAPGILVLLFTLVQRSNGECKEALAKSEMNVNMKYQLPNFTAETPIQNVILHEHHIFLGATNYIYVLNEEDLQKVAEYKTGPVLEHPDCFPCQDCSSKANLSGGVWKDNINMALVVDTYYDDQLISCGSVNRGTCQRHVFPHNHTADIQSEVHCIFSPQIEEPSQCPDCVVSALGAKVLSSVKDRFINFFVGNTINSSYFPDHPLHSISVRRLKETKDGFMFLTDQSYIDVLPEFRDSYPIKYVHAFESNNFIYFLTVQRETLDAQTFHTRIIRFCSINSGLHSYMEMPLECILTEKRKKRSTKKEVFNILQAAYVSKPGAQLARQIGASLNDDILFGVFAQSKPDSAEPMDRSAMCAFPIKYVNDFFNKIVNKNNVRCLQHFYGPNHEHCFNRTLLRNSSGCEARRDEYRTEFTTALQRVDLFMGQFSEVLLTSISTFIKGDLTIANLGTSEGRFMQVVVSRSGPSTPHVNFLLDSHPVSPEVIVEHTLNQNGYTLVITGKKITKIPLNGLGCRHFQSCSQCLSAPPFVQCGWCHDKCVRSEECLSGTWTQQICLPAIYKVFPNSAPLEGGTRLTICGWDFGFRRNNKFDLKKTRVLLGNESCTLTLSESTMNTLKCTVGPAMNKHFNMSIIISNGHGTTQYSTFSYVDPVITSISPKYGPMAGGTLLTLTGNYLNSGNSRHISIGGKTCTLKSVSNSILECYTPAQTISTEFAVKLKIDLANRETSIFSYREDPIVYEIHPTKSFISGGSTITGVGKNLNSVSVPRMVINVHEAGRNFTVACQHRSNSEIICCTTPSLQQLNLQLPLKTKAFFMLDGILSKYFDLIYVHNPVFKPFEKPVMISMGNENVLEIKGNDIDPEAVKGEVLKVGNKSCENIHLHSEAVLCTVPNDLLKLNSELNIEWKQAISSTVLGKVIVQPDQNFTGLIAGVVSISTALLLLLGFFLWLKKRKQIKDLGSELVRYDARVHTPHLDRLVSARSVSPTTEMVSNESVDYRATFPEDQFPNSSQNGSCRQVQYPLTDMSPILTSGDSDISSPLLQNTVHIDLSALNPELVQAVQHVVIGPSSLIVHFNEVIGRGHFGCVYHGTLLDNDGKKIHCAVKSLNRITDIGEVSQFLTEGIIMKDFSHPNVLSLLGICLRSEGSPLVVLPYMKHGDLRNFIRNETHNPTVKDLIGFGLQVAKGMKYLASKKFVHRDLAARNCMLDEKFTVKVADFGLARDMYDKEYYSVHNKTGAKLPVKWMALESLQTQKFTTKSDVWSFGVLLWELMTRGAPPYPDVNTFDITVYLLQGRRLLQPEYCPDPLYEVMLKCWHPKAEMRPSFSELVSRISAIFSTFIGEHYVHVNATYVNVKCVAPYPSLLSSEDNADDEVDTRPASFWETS

Ki [1]: > 2.51 µM (inactive) | Ki [2]: > 3.98 µM (inactive) | Ki [3]: > 3.98 µM (inactive) | Ki [4]: > 2.51 µM (inactive) | Ki [5]: 0.0126 µM (active)
Compound: [2H]C([2H])([2H])Oc1cccc(C(C)NC(=O)c2sc(-c3ccncc3)nc2C)c1 (stereo not drawn)

Ki [6]: 0.1 µM (active) | Ki [7]: 0.0126 µM (active) | Ki [8]: > 7.94 µM (inactive) | Ki [9]: > 3.16 µM (inactive) | Ki [10]: 7.94 µM (active) | Ki [11]: 0.0501 µM (active) | Ki [12]: 0.631 µM (active) | Ki [13]: 0.00126 µM (active) | Ki [14]: 1.58 µM (active) | Ki [15]: 0.0126 µM (active)
Compound: Cc1n[nH]c2ccc(-c3cncc(OCC(N)Cc4ccc(Cl)c(Cl)c4)c3)cc12 (stereo not drawn)

IC50 [16]: 12.6 µM (active) | IC50 [17]: > 128 µM (inactive) | IC50 [18]: > 100 µM (not active)
Compound: COc1ccc(-n2c(NC(=O)c3ccco3)c(C#N)c3nc4ccccc4nc32)cc1

Reference: ChEMBL document CHEMBL1201862, “PubChem BioAssay data set” (2004)
